In ChEMBL document CHEMBL5154705, “Discovery and mechanistic study of thiazole-4-acylsulfonamide derivatives as potent and orally active ChemR23 inhibitors with a long-acting effect in cynomolgus monkeys” (Bioorg Med Chem, 2022):

Key:
[1] = Cmax in cynomolgus monkey at 0.3 mg/kg, po; assay type: ADME, organism-based, Macaca fascicularis; parameters: dose 0.3 mg/kg, route po; details: in vivo
[2] = Drug concentration in cynomolgus monkey plasma at 0.3 mg/kg, po after 8 hrs; assay type: ADME, organism-based, Macaca fascicularis
[3] = Tmax in cynomolgus monkey at 0.3 mg/kg, po; assay type: ADME, organism-based, Macaca fascicularis; details: in vivo
[4] = Half life in cynomolgus monkey at 0.3 mg/kg, po; assay type: ADME, organism-based, Macaca fascicularis; details: in vivo
[5] = AUC(0 to infinity) in cynomolgus monkey at 0.3 mg/kg, po; assay type: ADME, organism-based, Macaca fascicularis; parameters: time infinity, dose 0.3 mg/kg, route po; details: in vivo
[6] = MRT in cynomolgus monkey at 0.3 mg/kg, po; assay type: ADME, organism-based, Macaca fascicularis; details: in vivo
[7] = Drug concentration in cynomolgus monkey plasma at 1 mg/kg, po after 8 hrs; assay type: ADME, organism-based, Macaca fascicularis
[8] = Cmax in cynomolgus monkey at 0.3 to 1 mg/kg, po; assay type: ADME, organism-based, Macaca fascicularis; parameters: route po; details: in vivo, dose 0.3-1 mg/kg
[9] = Tmax in cynomolgus monkey at 0.3 to 1 mg/kg, po; assay type: ADME, organism-based, Macaca fascicularis; details: in vivo, dose 0.3-1 mg/kg
[10] = Half life in cynomolgus monkey at 0.3 to 1 mg/kg, po; assay type: ADME, organism-based, Macaca fascicularis; details: in vivo, dose 0.3-1 mg/kg
[11] = AUC(0 to infinity) in cynomolgus monkey at 0.3 to 1 mg/kg, po; assay type: ADME, organism-based, Macaca fascicularis; parameters: route po; details: in vivo, dose 0.3-1 mg/kg
[12] = MRT in cynomolgus monkey at 0.3 to 1 mg/kg, po; assay type: ADME, organism-based, Macaca fascicularis; details: in vivo, dose 0.3-1 mg/kg
[13] = target: T1, Chemerin-like receptor 1 (Homo sapiens) (UniProt Q99788); details: CAL1
T1 sequence (whole entry): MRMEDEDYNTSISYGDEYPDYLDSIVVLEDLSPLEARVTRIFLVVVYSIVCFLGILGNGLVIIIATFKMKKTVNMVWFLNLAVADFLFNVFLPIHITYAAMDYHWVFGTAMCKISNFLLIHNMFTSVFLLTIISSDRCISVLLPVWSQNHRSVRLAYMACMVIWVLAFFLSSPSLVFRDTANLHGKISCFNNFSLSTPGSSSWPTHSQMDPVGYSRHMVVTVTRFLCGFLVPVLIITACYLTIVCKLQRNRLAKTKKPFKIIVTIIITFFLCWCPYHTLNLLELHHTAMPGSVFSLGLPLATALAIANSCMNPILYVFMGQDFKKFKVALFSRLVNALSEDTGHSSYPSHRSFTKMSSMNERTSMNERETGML

[14] = Cmax in cynomolgus monkey at 1 mg/kg, po; assay type: ADME, organism-based, Macaca fascicularis; parameters: dose 1 mg/kg, route po; details: in vivo
[15] = AUC(0 to infinity) in cynomolgus monkey at 1 mg/kg, po; assay type: ADME, organism-based, Macaca fascicularis; parameters: time infinity, dose 1 mg/kg, route po; details: in vivo
[16] = Tmax in cynomolgus monkey at 1 mg/kg, po; assay type: ADME, organism-based, Macaca fascicularis; details: in vivo
[17] = Half life in cynomolgus monkey at 1 mg/kg, po; assay type: ADME, organism-based, Macaca fascicularis; details: in vivo
[18] = MRT in cynomolgus monkey at 1 mg/kg, po; assay type: ADME, organism-based, Macaca fascicularis; details: in vivo
Chemerin-like receptor 1 = target: T2, Chemerin-like receptor 1 (Homo sapiens, UniProt Q99788); assay: Inhibition of human ChemR23 expressed in CAL-1 cells assessed as reduction in chemerin-induced calcium signaling; assay type: functional, cell-based, CAL1
T2 sequence (Q99788 whole entry): T1 sequence (whole entry)

[19] = target: T1, Chemerin-like receptor 1 (Homo sapiens); assay: Binding affinity to ChemR23 (unknown origin) expressed in HEK293T cells at 40 to 1000 nM by flow cytometric analysis; assay type: cell-based; details: dose 40-1000 nM, DDE = dose-dependent effect

SMILES: CCONC(=O)c1ccc(Cl)cc1-c1ccc([C@@H](C)N(CC2CC2)c2nc(C(=O)NS(=O)(=O)C3CC3)c(C3CC3)s2)cc1
- Cmax [1]: 296 ng/mL
- concentration at 8 h [2]: 87.7 ng/mL
- Tmax [3]: 4 h
- half-life [4]: 2.6 h
- AUC(0-inf) [5]: 2060 ng·h/mL
- MRT [6]: 5.3 h

SMILES: COCCc1sc(N(CC2CC2)[C@H](C)c2ccc(-c3cc(C)ccc3-c3nc(=O)o[nH]3)cc2)nc1C(=O)NS(=O)(=O)C1CC1
- concentration at 8 h [7]: 274 ng/mL
- Cmax [8]: 3530 ng/mL
- Tmax [9]: 2.7 h
- half-life [10]: 2.6 h
- AUC(0-inf) [11]: 12800 ng·h/mL
- MRT [12]: 4.2 h
- IC80 [13]: 33 nM

SMILES: C[C@H](c1ccc(-c2cc(Cl)ccc2C(=O)O)cc1)N(CC1CC1)c1nc(C(=O)NS(=O)(=O)C2CC2)c(C2CC2)s1
- IC80 [13]: 24 nM

SMILES: Cc1ccc(-c2nc(=O)o[nH]2)c(-c2ccc([C@@H](C)N(CC3CC3)c3nc(C(=O)NS(=O)(=O)C4CC4)c(-c4ccccc4)s3)cc2)c1
- IC80 [13]: > 330 nM

SMILES: COc1cccc(-c2sc(N(CC3CC3)[C@H](C)c3ccc(-c4cc(C)ccc4-c4nc(=O)o[nH]4)cc3)nc2C(=O)NS(=O)(=O)C2CC2)c1
- IC80 [13]: 42 nM

SMILES: Cc1ccc(-c2nc(=O)o[nH]2)c(-c2ccc([C@@H](C)N(CC3CC3)c3nc(C(=O)NS(=O)(=O)C4CC4)c(C4CCOC4)s3)cc2)c1 (stereo partly drawn)
- IC80 [13]: 12 nM

SMILES: Cc1ccc(-c2nc(=O)o[nH]2)c(-c2ccc([C@@H](C)N(CC3CC3)c3nc(C(=O)NS(=O)(=O)C4CC4)c(-c4ccsc4)s3)cc2)c1
- IC80 [13]: > 330 nM

SMILES: CNC(=O)c1ccc(Cl)cc1-c1ccc([C@@H](C)N(CC2CC2)c2nc(C(=O)NS(=O)(=O)C3CC3)c(C3CC3)s2)cc1
- Cmax [1]: 897 ng/mL
- concentration at 8 h [2]: 453 ng/mL
- Tmax [3]: 4 h
- half-life [4]: 3.6 h
- AUC(0-inf) [5]: 8720 ng·h/mL
- MRT [6]: 6.4 h
- IC80 [13]: 9 nM

SMILES: CNC(=O)c1ccc(C)cc1-c1ccc([C@@H](C)N(CC2CC2)c2nc(C(=O)NS(=O)(=O)C3CC3)c(C3CC3)s2)cc1
- concentration at 8 h [7]: 996 ng/mL
- Cmax [14]: 2810 ng/mL
- AUC(0-inf) [15]: 21400 ng·h/mL
- Tmax [16]: 4 h
- half-life [17]: 3 h
- MRT [18]: 6.1 h
- IC80 [13]: 57 nM

SMILES: Cc1ccc(-c2nc(=O)o[nH]2)c(-c2ccc([C@@H](C)N(CC3CC3)c3nc(C(=O)NS(=O)(=O)C4CC4)c(C4CCC4)s3)cc2)c1
- concentration at 8 h [7]: 2600 ng/mL
- Cmax [8]: 7910 ng/mL
- Tmax [9]: 2.7 h
- half-life [10]: 2.8 h
- AUC(0-inf) [11]: 55800 ng·h/mL
- MRT [12]: 5.7 h
- IC80 [13]: 130 nM

SMILES: Cc1sc(N(CC2CC2)[C@H](C)c2ccc(-c3cc(Cl)ccc3-c3nc(=O)o[nH]3)cc2)nc1C(=O)NC1CC1
- IC80 [13]: > 330 nM

SMILES: Cc1sc(N(CC2CC2)[C@H](C)c2ccc(-c3cc(Cl)ccc3-c3nc(=O)o[nH]3)cc2)nc1C(=O)NS(=O)(=O)C1CCCC1
- concentration at 8 h [7]: 10 ng/mL
- Cmax [14]: 722 ng/mL
- AUC(0-inf) [15]: 1730 ng·h/mL
- IC80 [13]: 66 nM

SMILES: CCS(=O)(=O)NC(=O)c1nc(N(CC2CC2)[C@H](C)c2ccc(-c3cc(Cl)ccc3-c3nc(=O)o[nH]3)cc2)sc1C
- concentration at 8 h [7]: 14 ng/mL
- Cmax [14]: 716 ng/mL
- AUC(0-inf) [15]: 2170 ng·h/mL

SMILES: Cc1ccc(-c2nc(=O)o[nH]2)c(-c2ccc([C@@H](C)N(CC3CC3)c3nc(C(=O)NS(=O)(=O)C4CC4)c(-c4ccoc4)s3)cc2)c1
- IC80 [13]: > 330 nM

SMILES: CCNC(=O)CCC(=O)N1Cc2ccccc2-c2nnn(CCOCCOCCOCCOCCOCCOCCNC(=O)c3ccc(Cl)cc3-c3ccc([C@@H](C)N(CC4CC4)c4nc(C(=O)NS(=O)(=O)C5CC5)c(C5CC5)s4)cc3)c2-c2ccccc21
- IC50 (Chemerin-like receptor 1): 9.1 nM

SMILES: Cc1sc(N(CC2CC2)[C@H](C)c2ccc(-c3cc(Cl)ccc3-c3nc(=O)o[nH]3)cc2)nc1C(=O)NS(C)(=O)=O
- concentration at 8 h [7]: 4.2 ng/mL
- Cmax [14]: 216 ng/mL
- AUC(0-inf) [15]: 726 ng·h/mL

SMILES: C[C@H](c1ccc(-c2cc(Cl)ccc2C(=O)NCCOCCOCCOCCOCCOCCOCCn2nnc3c2-c2ccccc2N(C(=O)CCNC(=O)CCOCCOCCOCCOCCNC(=O)c2ccc(C(=O)[O-])c(-c4c5ccc(=[N+](C)C)cc-5oc5cc(N(C)C)ccc45)c2)Cc2ccccc2-3)cc1)N(CC1CC1)c1nc(C(=O)NS(=O)(=O)C2CC2)c(C2CC2)s1
- Activity [19]: Dde
